Measurements: US12410428B2, “RNA-guided transcriptional regulation and methods of using the same for the treatment of back pain” (University of Utah Research Foundation, priority 2018, dated 2025)

Legend:
[1] = test system: TNFR1 signaling (NF-κB activity); experiment: NF-κB activity assay in HEK293T cells dosed with TNF-α; type: cell-based, human; settings: 0.15 ng/mL TNF-α, 24 hours
Method: Measurement of functional effects of epigenome editing based gene downregulation. NE-κB activity assays. HEK293T cells and hADMSCs were transduced with the earlier mentioned NF-κB reporter vector and analyzed for changes in NF-κB activity in response to dosing cells with TNF-α/IL-1β (RnD systems, ProSpec). To further describe, cells expressing the NF-κB reporter were plated in white 96-well plates (HEK293T cells at 25,000 cells/well and hADMSCs at 5000 cells/well) and allowed to attach overnight. The next day cells were dosed with the appropriate amounts of inflammatory cytokines (0, […], 1, and/or 10 ng/mL of TNF-α/IL-1β) for 24 hours. At 24 hours luminescence corresponding to NF-κB activity was measured in one set of cells using the bright glo assay (Promega) and cell number was measured on another set of cells under the same treatment using the real-time glo assay (Promega). Changes in NF-κB activity were quantified as a fold change in luminescence relative to the no dose control for each cell type, with NF-κB activity normalized to cell number.

TNFR1 = experiment: Human NP cell CRISPRi: TNFR1 knockdown by qRT-PCR; type: cell-based; settings: human NP cells
Method: Human NP Cell CRISPRi. […] Quantitative RT-PCR was performed to identify TNFR1 knockdown in these primary human NP cells. Additionally, flow-cytometry was performed to determine transduction efficiency in human NP cells.

Row | Substance | NF-κB activity vs no dose control [1] | TNFR1 knockdown (TNFR1; with dCas9-KRAB) [%] | TNFR1 knockdown (TNFR1; with dCas9 alone)
1 | 5′-CAGUGUUGCAACAGCGGGAC-3′ (expressed or natural sequence) [TNFR1 gRNA 1, 79] | no significant increase in NF-κB activity | – | –
2 | 5′-AUAAGCGUCCGACACAUGAU-3′ (expressed or natural sequence) [TNFR1 gRNA 4, 82] | – | 55 | no knockdown
